Source: ChEMBL document CHEMBL5055654, “Discovery of 5-methylpyrimidopyridone analogues as selective antimycobacterial agents” (Bioorg Med Chem, 2021)
Values after ≈ are worked out from the molar mass of the structure shown. Active and inactive are the calls of the source. The rule behind the calls is not given here.

Experiments:
[1] = test system: Mycobacterium tuberculosis; test: Antitubercular activity against Mycobacterium tuberculosis mc2 6230 assessed as inhibition of bacterial growth incubated for 7 days; assay type: functional; settings: mc2 6230, 168 h, time 7 day
Escherichia coli = test: Antibacterial activity against Escherichia coli at 10 uM incubated for 16 hrs by microtiter reader analysis; assay type: functional, organism-based
Salmonella = test: Antibacterial activity against Salmonella at 10 uM incubated for 16 hrs by microtiter reader analysis; assay type: functional, organism-based
Vero = test: Cytotoxicity against African green monkey Vero cells assessed as reduction in cell viability measured after 72 hrs by CCK8 assay; assay type: cell-based; settings: Chlorocebus sabaeus
[2] = Binding affinity to Mycobacterium tuberculosis PknB

For Cc1c(-c2ccccc2Cl)c(=O)n(C23CC4CC(CC(C4)C2)C3)c2nc(NCCO)ncc12, which MIC [1] is on record?
The MIC was > 512 µM.

With Cc1c(-c2ccccc2Cl)c(=O)n(C23CC4CC(CC(C4)C2)C3)c2nc(NC[C@H]3CCCO3)ncc12 as the molecule, how does the MIC [1] read?
Its MIC is > 512 µM.

For CCCCNc1ncc2c(C)c(-c3ccccc3Cl)c(=O)n(C34CC5CC(CC(C5)C3)C4)c2n1, which MIC [1] is on record?
Its MIC is 512 µM (≈ 244 µg/mL).

With Cc1c(-c2ccccc2Cl)c(=O)n(C23CC4CC(CC(C4)C2)C3)c2nc(N(C)CCO)ncc12 as the molecule, how does the MIC [1] read?
Its MIC is > 512 µM.

With CCC(C)Nc1ncc2c(C)c(-c3ccccc3Cl)c(=O)n(C34CC5CC(CC(C5)C3)C4)c2n1 (stereo not given) as the molecule, how does the MIC [1] read?
Its MIC is 512 µM (≈ 244 µg/mL).

With Cc1cc(Nc2ncc3c(C)c(-c4ccccc4Cl)c(=O)n(C45CC6CC(CC(C6)C4)C5)c3n2)ccc1N1CCN(CCO)CC1 as the molecule, how does the MIC [1] read?
Its MIC is 32 µM (≈ 20.5 µg/mL).

For Cc1c(-c2ccccc2Cl)c(=O)n(C23CC4CC(CC(C4)C2)C3)c2nc(N3CC(OC(C)C)C3)ncc12, which MIC [1] is on record?
Its MIC is > 512 µM.

For Cc1c(-c2ccccc2Cl)c(=O)n(C23CC4CC(CC(C4)C2)C3)c2nc(NC3CC3)ncc12, which MIC [1] is on record?
The MIC was 265 µM (≈ 122 µg/mL).

With Cc1c(-c2ccccc2Cl)c(=O)n(C23CC4CC(CC(C4)C2)C3)c2nc(NC(C)C)ncc12 as the molecule, how does the MIC [1] read?
The MIC was 256 µM (≈ 119 µg/mL).

For Cc1cc(Nc2ncc3c(C)c(-c4cccc(Cl)c4)c(=O)n(C45CC6CC(CC(C6)C4)C5)c3n2)ccc1N1CCC(N(C)C)CC1, which MIC [1] is on record?
Its MIC is > 512 µM.

For Cc1c(-c2ccccc2Cl)c(=O)n(C23CC4CC(CC(C4)C2)C3)c2nc(NC3CCCCC3)ncc12, which MIC [1] is on record?
Its MIC is 512 µM (≈ 258 µg/mL).

For Cc1cc(Nc2ncc3c(C)c(-c4ccccc4)c(=O)n(C45CC6CC(CC(C6)C4)C5)c3n2)ccc1N1CCC(N(C)C)CC1, which MIC [1] is on record?
Its MIC is 16 µM (≈ 9.65 µg/mL).

For Cc1c(-c2ccccc2Cl)c(=O)n(C23CC4CC(CC(C4)C2)C3)c2nc(N3CCC(C)CC3)ncc12, which MIC [1] is on record?
Its MIC is > 512 µM.

For Cc1ccccc1-c1c(C)c2cnc(Nc3ccc(N4CCC(N(C)C)CC4)c(C)c3)nc2n(C23CC4CC(CC(C4)C2)C3)c1=O, which MIC [1] is on record?
The MIC was 8 µM (≈ 4.93 µg/mL).

For COc1nc2ccc(Br)cc2cc1[C@@H](c1ccccc1)[C@@](O)(CCN(C)C)c1cccc2ccccc12 [BEDAQUILINE], which MIC [1] is on record?
Its MIC is 0.02 µM (≈ 0.0111 µg/mL).

With Cc1c(-c2ccccc2Cl)c(=O)n(C23CC4CC(CC(C4)C2)C3)c2nc(N3CCN(C)CC3)ncc12 as the molecule, how does the MIC [1] read?
Its MIC is > 512 µM.

Which MIC [1] does the source give for COc1ccccc1-c1c(C)c2cnc(Nc3ccc(N4CCC(N(C)C)CC4)c(C)c3)nc2n(C23CC4CC(CC(C4)C2)C3)c1=O here?
The MIC was 16 µM (≈ 10.1 µg/mL).

Which Activity (Escherichia coli) does the source give for Cc1cc(Nc2ncc3c(C)c(-c4ccccc4Cl)c(=O)n(C45CC6CC(CC(C6)C4)C5)c3n2)ccc1N1CCC(N(C)C)CC1 here?
The Activity was “inactive”.

What about the Activity (Salmonella) of the same molecule?
Its Activity is “inactive”.

And the MIC [1]?
The MIC was 4 µM (≈ 2.55 µg/mL).

And the IC50 (Vero)?
The IC50 was 2.9 µM.

For Cc1cc(Nc2ncc3c(C)c(-c4ccc(Cl)cc4)c(=O)n(C45CC6CC(CC(C6)C4)C5)c3n2)ccc1N1CCC(N(C)C)CC1, which MIC [1] is on record?
Its MIC is > 512 µM.

For Cc1cc(Nc2ncc3c(C)c(-c4ccccc4F)c(=O)n(C45CC6CC(CC(C6)C4)C5)c3n2)ccc1N1CCC(N(C)C)CC1, which MIC [1] is on record?
Its MIC is 32 µM (≈ 19.9 µg/mL).

Which MIC [1] does the source give for Cc1c(-c2ccccc2Cl)c(=O)n(C23CC4CC(CC(C4)C2)C3)c2nc(N3CCN(CCO)CC3)ncc12 here?
Its MIC is 64 µM (≈ 34.2 µg/mL).

For CCOc1cc(Nc2ncc3c(C)c(-c4ccccc4Cl)c(=O)n(C45CC6CC(CC(C6)C4)C5)c3n2)ccc1N1CCN(C)CC1, which Activity (Escherichia coli) is on record?
The Activity was “inactive”.

And the Activity (Salmonella)?
Its Activity is “inactive”.

And the MIC [1]?
Its MIC is 8 µM (≈ 5.11 µg/mL).

And the IC50 (Vero)?
Its IC50 is 4.4 µM.

What does the source list for COc1cc(Nc2ncc3c(C)c(-c4ccccc4Cl)c(=O)n(C45CC6CC(CC(C6)C4)C5)c3n2)ccc1N1CCN(C)CC1?
Kd [2]: 750 nM; MIC [1]: 8 µM (≈ 5 µg/mL)

Which MIC [1] does the source give for Cc1cc(Nc2ncc3c(C)c(-c4ccccc4Cl)c(=O)n(C4CCCCC4)c3n2)ccc1N1CCC(N(C)C)CC1 here?
The MIC was 32 µM (≈ 18.7 µg/mL).

With Cc1c(-c2ccccc2Cl)c(=O)n(C23CC4CC(CC(C4)C2)C3)c2nc(NC3CCCC3)ncc12 as the molecule, how does the MIC [1] read?
Its MIC is 265 µM (≈ 130 µg/mL).

For NNC(=O)c1ccncc1 [ISONIAZID], which MIC [1] is on record?
The MIC was 0.2 µM (≈ 0.0274 µg/mL).

Which results are given for Cc1cc(Nc2ncc3c(C)c(-c4ccccc4Cl)c(=O)n(C45CC6CC(CC(C6)C4)C5)c3n2)ccc1N1CCN(C)CC1?
Activity (Escherichia coli): inactive; Activity (Salmonella): inactive; MIC [1]: 8 µM (≈ 4.87 µg/mL); IC50 (Vero): 4.8 µM

With COCCNc1ncc2c(C)c(-c3ccccc3Cl)c(=O)n(C34CC5CC(CC(C5)C3)C4)c2n1 as the molecule, how does the MIC [1] read?
Its MIC is > 512 µM.

Which MIC [1] does the source give for CCNc1ncc2c(C)c(-c3ccccc3Cl)c(=O)n(C34CC5CC(CC(C5)C3)C4)c2n1 here?
Its MIC is 256 µM (≈ 115 µg/mL).

For Cc1c(-c2ccccc2Cl)c(=O)n(C23CC4CC(CC(C4)C2)C3)c2nc(Nc3ccc(N4CCN(C)CC4)cc3)ncc12, which MIC [1] is on record?
Its MIC is 512 µM (≈ 305 µg/mL).

For Cc1c(-c2ccccc2Cl)c(=O)n(C23CC4CC(CC(C4)C2)C3)c2nc(Nc3ccc(N4CCN(C)CC4)c(OC(C)C)c3)ncc12, which Activity (Escherichia coli) is on record?
Its Activity is “inactive”.

And the Activity (Salmonella)?
The Activity was “inactive”.

And the MIC [1]?
The MIC was 8 µM (≈ 5.23 µg/mL).

And the IC50 (Vero)?
The IC50 was 4.6 µM.

Which MIC [1] does the source give for Cc1c(-c2ccccc2Cl)c(=O)n(C23CC4CC(CC(C4)C2)C3)c2nc(N3CCC(N4CCOCC4)CC3)ncc12 here?
Its MIC is > 512 µM.

For Cc1cc(Nc2ncc3c(C)c(-c4ccccc4C#N)c(=O)n(C45CC6CC(CC(C6)C4)C5)c3n2)ccc1N1CCC(N(C)C)CC1, which MIC [1] is on record?
The MIC was 16 µM (≈ 10 µg/mL).

For Cc1cc(Nc2ncc3c(C)c(-c4ccccc4Cl)c(=O)n(C45CC6CC(CC(C6)C4)C5)c3n2)ccc1N1CCC(C)CC1, which MIC [1] is on record?
The MIC was > 512 µM.

For Cc1c(-c2ccccc2Cl)c(=O)n(C23CC4CC(CC(C4)C2)C3)c2nc(N3CCC(N(C)C)CC3)ncc12, which MIC [1] is on record?
The MIC was 16 µM (≈ 8.51 µg/mL).

For Cc1cc(Nc2ncc3c(C)c(-c4ccccc4Cl)c(=O)n(C4CCCC4)c3n2)ccc1N1CCC(N(C)C)CC1, which MIC [1] is on record?
Its MIC is 32 µM (≈ 18.3 µg/mL).

With Cc1c(-c2ccccc2Cl)c(=O)n(C23CC4CC(CC(C4)C2)C3)c2nc(N3CCC(O)CC3)ncc12 as the molecule, how does the MIC [1] read?
The MIC was > 512 µM.
